Results on six molecules are retold here after ChEMBL document CHEMBL2074085, “P-glycoprotein (P-gp/MDR1)-mediated efflux of sex-steroid hormones and modulation of P-gp expression in vitro” (Pharm Res, 2004).

The target of the data set is ATP-dependent translocase ABCB1 (Homo sapiens, UniProt P08183). Briefly: TP_TRANSPORTER: transepithelial transport in MDR1-expressing MDCK cells. The class given is functional, cell-based. As to conditions: dog.
Chain of ATP-dependent translocase ABCB1 (P08183 whole entry): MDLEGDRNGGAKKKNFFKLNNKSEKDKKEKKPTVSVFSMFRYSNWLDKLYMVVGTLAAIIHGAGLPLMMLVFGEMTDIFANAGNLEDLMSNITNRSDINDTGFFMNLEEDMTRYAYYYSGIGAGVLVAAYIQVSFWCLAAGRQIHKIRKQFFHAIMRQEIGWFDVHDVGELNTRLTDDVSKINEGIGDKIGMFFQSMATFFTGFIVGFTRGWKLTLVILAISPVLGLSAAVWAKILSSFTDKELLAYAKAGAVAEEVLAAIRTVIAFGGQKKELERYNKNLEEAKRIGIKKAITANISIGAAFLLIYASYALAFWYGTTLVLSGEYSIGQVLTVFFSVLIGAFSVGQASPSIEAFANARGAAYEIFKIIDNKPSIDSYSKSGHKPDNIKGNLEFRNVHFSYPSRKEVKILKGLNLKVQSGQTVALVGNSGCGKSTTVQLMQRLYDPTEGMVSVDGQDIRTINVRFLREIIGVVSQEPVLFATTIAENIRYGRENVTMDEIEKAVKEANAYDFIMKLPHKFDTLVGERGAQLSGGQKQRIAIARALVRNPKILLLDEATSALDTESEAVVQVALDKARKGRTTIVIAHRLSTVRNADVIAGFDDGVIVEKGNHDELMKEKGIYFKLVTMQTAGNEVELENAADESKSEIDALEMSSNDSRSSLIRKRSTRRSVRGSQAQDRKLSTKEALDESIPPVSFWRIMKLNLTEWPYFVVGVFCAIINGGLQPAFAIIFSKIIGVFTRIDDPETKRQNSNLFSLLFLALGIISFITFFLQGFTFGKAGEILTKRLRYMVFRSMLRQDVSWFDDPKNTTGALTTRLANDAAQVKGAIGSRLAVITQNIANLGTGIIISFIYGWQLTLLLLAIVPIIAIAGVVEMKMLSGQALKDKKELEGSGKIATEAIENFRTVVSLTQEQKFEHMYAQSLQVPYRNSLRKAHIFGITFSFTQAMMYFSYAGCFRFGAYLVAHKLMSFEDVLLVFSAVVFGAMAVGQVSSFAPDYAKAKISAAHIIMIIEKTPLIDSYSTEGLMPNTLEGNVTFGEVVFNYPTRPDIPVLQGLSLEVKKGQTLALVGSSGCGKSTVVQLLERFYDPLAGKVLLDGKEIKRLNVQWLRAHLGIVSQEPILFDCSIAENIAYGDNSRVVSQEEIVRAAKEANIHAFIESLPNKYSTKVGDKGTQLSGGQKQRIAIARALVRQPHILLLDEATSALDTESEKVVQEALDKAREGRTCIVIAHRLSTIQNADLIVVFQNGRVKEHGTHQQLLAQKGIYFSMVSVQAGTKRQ
In the case of `C[C@]12CC[C@@H]3c4ccc(O)cc4CC[C@H]3[C@@H]1CC[C@@H]2O` [ESTRADIOL], the Activity entry was “is not a substrate [-]”.
Take `C[C@]12CC[C@@H]3c4ccc(O)cc4CC[C@H]3[C@@H]1C[C@@H](O)[C@@H]2O` [ESTRIOL]: the Activity entry was “substrate [+]”.
For `C[C@]12CC[C@@H]3c4ccc(O)cc4CC[C@H]3[C@@H]1CCC2=O` [ESTRONE], the Activity result was “substrate [+]”.
In the case of `C#C[C@]1(O)CC[C@H]2[C@@H]3CCc4cc(O)ccc4[C@H]3CC[C@@]21C` [ETHINYL ESTRADIOL], the Activity result is “substrate [+]”.
Take `C#C[C@]1(O)CC[C@H]2[C@@H]3CCC4=CC(=O)CC[C@@H]4[C@H]3CC[C@@]21C` [NORETHINDRONE]: the Activity entry was “is not a substrate [-]”.
Consider `CC(=O)[C@H]1CC[C@H]2[C@@H]3CCC4=CC(=O)CC[C@]4(C)[C@H]3CC[C@]12C` [PROGESTERONE], for which the Activity entry was “is not a substrate [-]”.
